US9693992B2 (MannKind Corporation, priority 2010, dated 2017)

Key:
[1] = target: IRE-1α (Homo sapiens (Human), UniProt O75460); assay: Cellular EC50: endogenous XBP-1 splicing in myeloma cells (MM.1s, DTT stress, RT-PCR); format: cell-based; conditions: average cellular EC50, XBP-1 splicing in myeloma cells
Protocol: Human myeloma MM.1s cells are incubated with a compound for 1.25 hours before stressing the cells with 2 mM dithiothreitol (DTT). After an additional 45 minutes (2 hours total) with compound and DTT, the cells are harvested with TRIZOL® (a mono-phasic solution of phenol and guanidine isothiocyanate), and total RNA is prepared as directed by the manufacturer (Invitrogen). Human XBP-1 is amplified by RT-PCR with the following primers, which flank the 26 base unconventional intron excised by IRE-1α:
RT-PCR of unstressed (U) cells then generates the upper band. When cells are stressed (S) with the endoplasmic reticulum (ER) stressing agent DTT, IRE-1α is activated due to accumulating unfolded protein and the resulting RT-PCR product is 26 base pairs shorter.
Compounds which pass specificity assays are assayed for cellular EC50 using endogenous XBP-1 splicing in myeloma cells. XBP-1 is regulated through the excision of a 26 nucleotide intron from the XBP-1 mRNA by the highly specific endoribonuclease activity of IRE-1α. […] This splicing event is used to measure IRE-1α activity on XBP-1 mRNA in cells and tissues.
Briefly, compounds are incubated in the presence or absence of an ER stress agent (e.g., DTT), and the ratio of XBP-1u (unspliced) to XBP-1s (spliced) is quantified by RT-PCR. The ED50 is determined as the 50% XBP-1s to total XPB-1 levels.

[2] = test system: XBP-1 splicing; assay: Inhibition of endogenous XBP-1 splicing in RPMI 8226 cells with thapsigargin (RT-PCR); format: cell-based, human; conditions: 300 nM, 2 hours
Protocol: PCR amplification products were run on a 4% agarose gel and stained with ethidium bromide. The inverse image is shown.
RPMI 8226 cells were grown in monolayer culture using Dulbecco's Modified Eagle Medium (DMEM) supplemented with 10% fetal calf serum (FCS) at 37° C. and 5% CO2. Compounds were kept as 10 mM stock in DMSO at −20° C. and diluted in medium to 10 μM. Thapsigargin (Tg) was resuspended in DMSO and diluted in medium.
Procedures for measuring XBP-1s and XBP-1u mRNAs have been described previously (Volkmann et al., J. Biol. Chem. 286, 12743-55, 2011). Briefly, total RNA was harvested from cells or tissue using TRIZOL® (Invitrogen) according to the manufacture's procedures. After ethanol precipitation and resuspension of the RNA, RIBOGREEN® (Invitrogen) was used to quantify the yield- and normalize the RNA concentration in the source tube containing isolated RNA. RT-PCR was performed by oligo dT priming, […]® II (Invitrogen) and reverse transcription using the […] GOLD® Kit (Applied Biosystems) according to the manufacturer's protocols. Primers for human XBP-1 were
All DNA oligos were purchased from IDT DNA Technologies. PCR reactions were run on a Bio-Rad PTC-100® 96-well thermocycler; heating at 94° C. for 30 seconds, annealing at 58° C. for 30 seconds polymerizing at 72° C. for 30 seconds for 35 cycles.

[3] = test system: human myeloma RPMI8226 tumor xenografts; assay: RPMI8226 xenograft efficacy model; format: in vivo, SCID mice; conditions: after cessation of therapy
Protocol: SCID mice are evaluated for their ability to support implantation of desired tumor cells in support of model development and characterization. Mice are injected intravenously […] or implanted either subcutaneously (SC) or intraperitoneally (IP). To generate a relevant animal model mimicking human disease, it is desirable that all three approaches are evaluated for improved implantation rates and relevant disease progression, as is well known in the art. SC injections provide an easy way to measure tumor growth and efficacy, and IV and IP injections represent a more physiologically relevant model of human tumor spread. SC injections are given primarily in the flank, while IV injections are administered in the tail vein. Mice are manually restrained for SC and IP injections, and a Broome mouse restrainer is used for IV injections.
SCID mice are implanted with tumor cells (human RPMI8226 myeloma cells) via IP, IV or SC routes based on the results from the xenograft model development studies (above). Mice are treated with compound or mock treated (vehicle) for a period of up to 4-5 weeks. Compound administration can be via IV, IP, PO or SC routes. […]
Mice are monitored for tumor growth, regression and general health. […] Tumor growth is measured by calipers, ultrasound, or by abdominal lavage. Biomarkers in the blood or tumor can evaluated (primarily XBP-1 splicing). […]

Chain of IRE-1α (O75460 19-977): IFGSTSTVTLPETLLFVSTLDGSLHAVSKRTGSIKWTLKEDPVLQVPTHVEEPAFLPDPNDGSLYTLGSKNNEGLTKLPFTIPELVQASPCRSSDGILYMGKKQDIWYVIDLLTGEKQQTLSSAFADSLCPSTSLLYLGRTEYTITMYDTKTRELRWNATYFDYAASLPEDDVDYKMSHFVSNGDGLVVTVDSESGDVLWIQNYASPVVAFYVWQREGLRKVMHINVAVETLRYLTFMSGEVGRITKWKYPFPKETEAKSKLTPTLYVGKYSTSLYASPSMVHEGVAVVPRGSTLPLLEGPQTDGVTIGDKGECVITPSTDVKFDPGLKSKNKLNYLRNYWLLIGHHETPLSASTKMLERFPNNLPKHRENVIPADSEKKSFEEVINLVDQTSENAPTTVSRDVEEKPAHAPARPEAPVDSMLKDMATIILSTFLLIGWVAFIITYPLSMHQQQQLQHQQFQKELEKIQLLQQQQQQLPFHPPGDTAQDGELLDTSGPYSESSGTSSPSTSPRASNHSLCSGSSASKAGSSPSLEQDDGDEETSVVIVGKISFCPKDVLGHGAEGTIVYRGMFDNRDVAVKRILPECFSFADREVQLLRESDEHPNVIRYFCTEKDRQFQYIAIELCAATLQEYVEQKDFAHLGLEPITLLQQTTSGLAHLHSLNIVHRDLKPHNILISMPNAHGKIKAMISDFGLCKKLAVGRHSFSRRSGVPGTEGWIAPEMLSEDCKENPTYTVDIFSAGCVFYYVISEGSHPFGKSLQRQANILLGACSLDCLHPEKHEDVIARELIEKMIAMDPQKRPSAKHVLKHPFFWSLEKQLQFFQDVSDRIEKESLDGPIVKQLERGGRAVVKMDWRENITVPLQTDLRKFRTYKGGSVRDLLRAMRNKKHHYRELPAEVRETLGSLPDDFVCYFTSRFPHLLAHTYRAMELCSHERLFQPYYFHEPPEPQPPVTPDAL

In the case of Cn1c(CCC(=O)O)nc2ccc(O)c(C=O)c21 [Example 240], the EC50 [1] is reported as greater than 10 µM.
Compound COCCNC(=O)CCc1nc2c(C=O)c(O)ccc2n1C [Example 241] has an EC50 [1] greater than 10 µM.
Cn1c(CCC(=O)N2CCOCC2)nc2c(C=O)c(O)ccc21 [Example 242] showed an EC50 [1] greater than 10 µM.
For Cn1c(CCC(=O)NCCN2CCOCC2)nc2c(C=O)c(O)ccc21 [Example 243], the EC50 [1] was greater than 10 µM.
Work on CN1CCN(C(=O)CCc2nc3c(C=O)c(O)ccc3n2C)CC1 [Example 244] yielded an EC50 [1] greater than 10 µM.
CCOC(=O)CCc1nc2c(C=O)c(O)ccc2n1C [Example 245] showed an EC50 [1] of less than 10 µM.
In the case of Cn1c(CCC(=O)O)nc2c(C=O)c(O)ccc21 [Example 246], the EC50 [1] is reported as greater than 10 µM.
For CCOC(=O)CCc1nc2c(C=O)c(O)ccc2o1 [Example 247], the EC50 [1] was greater than 10 µM.
Compound O=Cc1c(O)ccc2oc(CCC(=O)O)nc12 [Example 248] has an EC50 [1] greater than 10 µM.
With COCCNC(=O)CCc1nc2c(C=O)c(O)ccc2o1 [Example 249] the EC50 [1] was greater than 10 µM.
O=Cc1c(O)ccc2oc(CCC(=O)N3CCOCC3)nc12 [Example 250] showed an EC50 [1] greater than 10 µM.
For CN1CCN(C(=O)CCc2nc3c(C=O)c(O)ccc3o2)CC1 [Example 251], the EC50 [1] was greater than 10 µM.
CCNC(=O)CCc1nc2c(C=O)c(O)ccc2o1 [Example 252] was tested, and the EC50 [1] was greater than 10 µM.
Work on O=Cc1c(O)ccc2oc(CCC(=O)NCCN3CCOCC3)nc12 [Example 253] yielded an EC50 [1] of less than 10 µM.
CC(C(=O)N1CCOCC1)c1nc2c(C=O)c(O)ccc2o1 (centres unmarked) [Example 254] gave an EC50 [1] greater than 10 µM.
Compound Cc1nc2c(C=O)c(O)ccc2o1 [Example 255] has an EC50 [1] of less than 10 µM.
Cc1nc2ccc(O)c(C=O)c2o1 [Example 256] gave an EC50 [1] greater than 10 µM.
With O=Cc1c(O)ccc2ocnc12 [Example 257] the EC50 [1] was greater than 10 µM.
COCCNC(=O)c1cc2c(C=O)c(O)ccc2s1 [Example 258] was tested, and the EC50 [1] was greater than 10 µM.
In the case of O=Cc1c(O)ccc2sc(C(=O)N3CCOCC3)cc12 [Example 259], the EC50 [1] is reported as greater than 10 µM.
Work on CN1CCN(C(=O)c2cc3c(C=O)c(O)ccc3s2)CC1 [Example 260] yielded an EC50 [1] greater than 10 µM.
For CCNC(=O)c1cc2c(C=O)c(O)ccc2s1 [Example 261], the EC50 [1] was less than 10 µM.
O=Cc1c(O)ccc2sc(C(=O)NCCN3CCOCC3)cc12 [Example 262] was tested, and the EC50 [1] was less than 10 µM.
Work on CN(C)CCNC(=O)c1cc2c(C=O)c(O)ccc2s1 [Example 263] yielded an EC50 [1] greater than 10 µM.
Work on COC(=O)Cc1cc2c(C=O)c(O)ccc2s1 [Example 264] yielded an EC50 [1] greater than 10 µM.
Compound O=Cc1c(O)ccc2sc(CC(=O)O)cc12 [Example 265] has an EC50 [1] greater than 10 µM.
Work on COCCNC(=O)CCc1cc2c(C=O)c(O)ccc2s1 [Example 266] yielded an EC50 [1] of less than 10 µM.
In the case of CCOC(=O)CCc1cc2c(C=O)c(O)ccc2s1 [Example 267], the EC50 [1] is reported as greater than 10 µM.
Work on O=Cc1c(O)ccc2sc(CCC(=O)N3CCOCC3)cc12 [Example 268] yielded an EC50 [1] greater than 10 µM.
In the case of CCNC(=O)CCc1cc2c(C=O)c(O)ccc2s1 [Example 269], the EC50 [1] is reported as greater than 10 µM.
CN(C)CCNC(=O)CCc1cc2c(C=O)c(O)ccc2s1 [Example 271] gave an EC50 [1] of less than 10 µM.
Work on COCCNC(=O)c1cc2c(C=O)c(O)ccc2[nH]1 [Example 273] yielded an EC50 [1] greater than 10 µM.
O=Cc1c(O)ccc2[nH]c(C(=O)N3CCOCC3)cc12 [Example 274] showed an EC50 [1] greater than 10 µM.
For CN1CCN(C(=O)c2cc3c(C=O)c(O)ccc3[nH]2)CC1 [Example 275], the EC50 [1] was greater than 10 µM.
CCNC(=O)c1cc2c(C=O)c(O)ccc2[nH]1 [Example 276] showed an EC50 [1] greater than 10 µM.
With O=Cc1c(O)ccc2[nH]c(C(=O)NCCN3CCOCC3)cc12 [Example 277] the EC50 [1] was greater than 10 µM.
With CN(C)CCNC(=O)c1cc2c(C=O)c(O)ccc2[nH]1 [Example 278] the EC50 [1] was greater than 10 µM.
CCOC(=O)c1cc2c(C=O)c(O)ccc2[nH]1 [Example 279] was tested, and the EC50 [1] was greater than 10 µM.
Work on CCOC(=O)c1cc2c(C=O)c(O)ccc2o1 [Example 280] yielded an EC50 [1] greater than 10 µM.
For O=Cc1c(O)ccc2oc(C(=O)O)cc12 [Example 281], the EC50 [1] was greater than 10 µM.
In the case of COCCNC(=O)c1cc2c(C=O)c(O)ccc2o1 [Example 282], the EC50 [1] is reported as greater than 10 µM.
Compound O=Cc1c(O)ccc2oc(C(=O)N3CCOCC3)cc12 [Example 283] has an EC50 [1] greater than 10 µM.
CN1CCN(C(=O)c2cc3c(C=O)c(O)ccc3o2)CC1 [Example 284] gave an EC50 [1] greater than 10 µM.
In the case of CCNC(=O)c1cc2c(C=O)c(O)ccc2o1 [Example 285], the EC50 [1] is reported as less than 10 µM.
O=Cc1c(O)ccc2oc(C(=O)NCCN3CCOCC3)cc12 [Example 286] gave an EC50 [1] of less than 10 µM.
With C/C=C(/C)C(=O)O[C@H]1C(C)=C2[C@H]([C@@H]1OC(=O)CCCCCCC)[C@@](C)(OC(C)=O)C[C@H](OC(=O)CCC)[C@@]1(O)[C@H]2OC(=O)[C@@]1(C)O [Thapsigargin] the “conversion of XBP-1u to XBP-1s” value [2] was “near complete conversion of XBP-1u to XBP-1s”.
With CC(C)C[C@H](NC(=O)[C@H](Cc1ccccc1)NC(=O)c1cnccn1)B(O)O [bortezomib, [(1R)-3-methyl-1-[[(2S)-1-oxo-3-phenyl-2-[(pyrazinylcarbonyl)amino]propyl]amino]butyl]boronic acid] the tumor recurrence [3] was “tumors often recurred and grew into large masses”.
